{"source": "ChEMBL document CHEMBL1143560", "about": "“Discovery of bicycloalkyl urea melanin concentrating hormone receptor antagonists: orally efficacious antiobesity therapeutics” (J Med Chem, 2005)", "key": {"Rattus norvegicus [1]": {"test_system": "Rattus norvegicus", "experiment": "Oral efficacy for reduction in body weight of rats after 4 days of administration; Range is 15-20%", "format": "functional"}, "Mus musculus [2]": {"test_system": "Mus musculus", "experiment": "In vivo efficacy of compound for food intake by the mice in 2 h after peroral administration at 30 mpk expressed as percent of vehicle", "format": "functional"}, "Mus musculus [3]": {"test_system": "Mus musculus", "experiment": "In vivo efficacy of compound for food intake by the mice in 6 hr after peroral administration at 30 mpk expressed as percent of vehicle", "format": "functional"}, "Mus musculus [4]": {"test_system": "Mus musculus", "experiment": "In vivo efficacy of compound for food intake by the mice in 24 hr after peroral administration at 30 mpk expressed as percent of vehicle", "format": "functional"}, "[5]": {"target": "Melanin-concentrating hormone receptor 1 (Mus musculus) (UniProt Q8JZL2)", "sequence (Q8JZL2 whole entry)": "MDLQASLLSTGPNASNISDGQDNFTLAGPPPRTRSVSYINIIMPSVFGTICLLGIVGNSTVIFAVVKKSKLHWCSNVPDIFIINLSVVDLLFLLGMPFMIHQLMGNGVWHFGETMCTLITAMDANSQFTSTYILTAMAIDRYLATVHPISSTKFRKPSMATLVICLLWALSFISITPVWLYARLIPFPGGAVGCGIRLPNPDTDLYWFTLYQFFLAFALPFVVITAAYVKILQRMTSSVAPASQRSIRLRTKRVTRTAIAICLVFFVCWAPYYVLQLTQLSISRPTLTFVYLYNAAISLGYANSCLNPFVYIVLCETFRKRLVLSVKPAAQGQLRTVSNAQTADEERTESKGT", "experiment": "Ex vivo inhibition of MCH-ADO binding to Melanin concentrating hormone receptor 1 in mice (n=3) 6 hr after 30 mg/kg peroral dose", "format": "organism-based", "design": "dose 30 mg/kg", "conditions": "at 30 mg/kg"}, "[6]": {"target": "Melanin-concentrating hormone receptor 1 (Mus musculus) (UniProt Q8JZL2)", "experiment": "Ex vivo inhibition of MCH-ADO binding to Melanin concentrating hormone receptor 1 in mice (n=3) 24 hr r after 30 mg/kg peroral dose", "format": "organism-based", "design": "dose 30 mg/kg", "conditions": "at 30 mg/kg"}, "[7]": {"target": "Melanin-concentrating hormone receptor 2 (Homo sapiens, UniProt Q969V1)", "sequence (Q969V1 whole entry)": "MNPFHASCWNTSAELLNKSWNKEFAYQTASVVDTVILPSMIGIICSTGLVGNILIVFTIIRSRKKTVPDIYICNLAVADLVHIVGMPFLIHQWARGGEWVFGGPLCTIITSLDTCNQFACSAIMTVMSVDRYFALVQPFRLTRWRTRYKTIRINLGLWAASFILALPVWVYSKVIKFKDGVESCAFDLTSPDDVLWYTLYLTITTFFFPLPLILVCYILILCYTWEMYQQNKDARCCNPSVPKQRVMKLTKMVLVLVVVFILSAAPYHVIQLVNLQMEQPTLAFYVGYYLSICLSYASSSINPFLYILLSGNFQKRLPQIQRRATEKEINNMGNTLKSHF", "experiment": "Inhibition constant for human Melanin concentrating hormone receptor 2"}, "[8]": {"target": "Melanin-concentrating hormone receptor 1 (Mus musculus, UniProt Q8JZL2)", "sequence (Q8JZL2 whole entry)": "as the sequence (Q8JZL2 whole entry) above", "experiment": "Inhibition constant for mouse Melanin concentrating hormone receptor 1"}, "[9]": {"experiment": "Bioavailability of compound in rats (n= 3) after oral administration at 10 mpk", "format": "ADME, organism-based", "conditions": "rat, in vivo, 10 mg/kg"}, "[10]": {"target": "T1, Melanin-concentrating hormone receptor 1 (Homo sapiens, UniProt Q99705)", "T1 sequence (Q99705 whole entry)": "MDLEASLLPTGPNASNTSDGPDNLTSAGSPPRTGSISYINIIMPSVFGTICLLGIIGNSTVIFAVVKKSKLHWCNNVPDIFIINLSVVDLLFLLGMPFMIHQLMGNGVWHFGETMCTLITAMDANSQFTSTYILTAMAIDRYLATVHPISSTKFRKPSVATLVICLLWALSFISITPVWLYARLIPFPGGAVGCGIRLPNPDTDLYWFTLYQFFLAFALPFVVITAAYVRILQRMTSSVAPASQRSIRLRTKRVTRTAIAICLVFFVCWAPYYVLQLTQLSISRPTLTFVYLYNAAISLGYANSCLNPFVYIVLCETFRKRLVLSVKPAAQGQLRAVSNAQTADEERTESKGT", "experiment": "Inhibition of [Ca2+] influx mediated by human Melanin concentrating hormone receptor 1 expressing cells", "format": "functional"}, "[11]": {"experiment": "Steady state volume distribution of compound in rats (n= 3) after oral administration at 10 mpk", "format": "ADME, organism-based", "conditions": "rat, in vivo, 10 mg/kg"}, "[12]": {"experiment": "Clearance of compound in rats (n= 3) after intravenous administration at 10 mpk", "format": "ADME, organism-based", "conditions": "rat, in vivo, 10 mg/kg"}, "[13]": {"experiment": "Half life of compound in rats (n= 3) after intravenous administration at 10 mpk", "format": "ADME, organism-based", "conditions": "rat, in vivo, 10 mg/kg"}, "[14]": {"target": "T1, Melanin-concentrating hormone receptor 1", "experiment": "Inhibition constant for human Melanin concentrating hormone receptor 1"}, "[15]": {"experiment": "Area under concentration time curve (from 0-24 hr) for compound in rats (n= 3) after oral administration at 10 mpk", "format": "ADME", "design": "dose 10 mpk, time < 24 hr, route oral", "conditions": "rat, in vivo, 10 mg/kg"}, "Mus musculus [16]": {"test_system": "Mus musculus", "experiment": "Reduction in milk consumption by fasted mouse after oral administration"}, "Rattus norvegicus [17]": {"test_system": "Rattus norvegicus", "experiment": "Reduction of food intake by rats after 6 hr of administration was measured", "format": "functional"}, "Rattus norvegicus [18]": {"test_system": "Rattus norvegicus", "experiment": "Suppression of Melanin concentrating hormone receptor-stimulated food intake in lean rats after 30 mg/kg dose", "format": "functional"}}, "data": [{"smiles": "CN(C)c1nc(N[C@H]2CC[C@@H](NC(=O)c3ccc(F)c(F)c3)CC2)nc2ccccc12", "values": [{"measurement": "Efficacy", "setting": "Rattus norvegicus [1]", "result": 20, "unit": "%"}]}, {"smiles": "N#Cc1cccc([C@@]23CC[C@@H](N(CCN4CC[C@@H](O)C4)C(=O)Nc4ccc(F)c(Cl)c4)C[C@@H]2C3)c1", "values": [{"measurement": "Efficacy", "setting": "Mus musculus [2]", "result": 80, "unit": "%"}, {"measurement": "Efficacy", "setting": "Mus musculus [3]", "result": 99, "unit": "%"}, {"measurement": "Efficacy", "setting": "Mus musculus [4]", "result": 98.6, "unit": "%"}, {"measurement": "inhibition", "setting": "[5]", "result": 62, "unit": "%"}, {"measurement": "inhibition", "setting": "[6]", "result": 8, "unit": "%"}, {"measurement": "Ki", "setting": "[7]", "result": "> 3000", "unit": "nM"}, {"measurement": "Ki", "setting": "[8]", "result": 7.8, "unit": "nM"}]}, {"smiles": "CN1CCN(CCCCN(C(=O)Nc2ccc(F)c(C(F)(F)F)c2)[C@@H]2CC[C@]3(c4ccc(C#N)cc4)C[C@H]23)CC1", "values": [{"measurement": "bioavailability", "setting": "[9]", "result": 27, "unit": "%"}, {"measurement": "Efficacy", "setting": "Mus musculus [2]", "result": 77.3, "unit": "%"}, {"measurement": "Efficacy", "setting": "Mus musculus [3]", "result": 76, "unit": "%"}, {"measurement": "Efficacy", "setting": "Mus musculus [4]", "result": 78.1, "unit": "%"}, {"measurement": "Kb", "setting": "[10]", "result": 1.9, "unit": "nM"}, {"measurement": "Vd(ss)", "setting": "[11]", "result": 5.6, "unit": "L/kg"}, {"measurement": "inhibition", "setting": "[5]", "result": 99, "unit": "%"}, {"measurement": "inhibition", "setting": "[6]", "result": 58, "unit": "%"}, {"measurement": "clearance", "setting": "[12]", "result": 21.8, "unit": "mL/min/kg"}, {"measurement": "half-life", "setting": "[13]", "result": 4, "unit": "h"}, {"measurement": "Ki", "setting": "[14]", "result": 2.7, "unit": "nM"}, {"measurement": "Ki", "setting": "[7]", "result": "> 3000", "unit": "nM"}, {"measurement": "Ki", "setting": "[8]", "result": 3, "unit": "nM"}, {"measurement": "AUC", "setting": "[15]", "result": 2140, "unit": "ng·h/mL"}]}, {"smiles": "N#Cc1cccc(-c2ccc(N(CCN3CC[C@@H](O)C3)C(=O)Nc3ccc(F)c(C(F)(F)F)c3)cc2)c1", "values": [{"measurement": "Kb", "setting": "[10]", "result": 2, "unit": "nM"}, {"measurement": "Ki", "setting": "[14]", "result": 8.9, "unit": "nM"}, {"measurement": "Ki", "setting": "[7]", "result": "> 3000", "unit": "nM"}, {"measurement": "Ki", "setting": "[8]", "result": 9.6, "unit": "nM"}]}, {"smiles": "N#Cc1cccc([C@H]2CC[C@@H](N(CCN3CC[C@@H](O)C3)C(=O)Nc3ccc(F)c(C(F)(F)F)c3)CC2)c1", "values": [{"measurement": "Ki", "setting": "[14]", "result": 2020, "unit": "nM"}, {"measurement": "Ki", "setting": "[7]", "result": "> 3000", "unit": "nM"}]}, {"smiles": "N#Cc1ccccc1[C@]12CC[C@@H](N(CCN3CC[C@@H](O)C3)C(=O)Nc3ccc(F)c(C(F)(F)F)c3)[C@H]1C2", "values": [{"measurement": "Efficacy", "setting": "Mus musculus [2]", "result": 65.7, "unit": "%"}, {"measurement": "Efficacy", "setting": "Mus musculus [3]", "result": 68.2, "unit": "%"}, {"measurement": "Efficacy", "setting": "Mus musculus [4]", "result": 80.8, "unit": "%"}, {"measurement": "inhibition", "setting": "[5]", "result": 81, "unit": "%"}, {"measurement": "Ki", "setting": "[14]", "result": 7.1, "unit": "nM"}, {"measurement": "Ki", "setting": "[7]", "result": "> 3000", "unit": "nM"}]}, {"smiles": "N#Cc1cccc([C@@]23CC[C@@H](N(CCN4CC[C@@H](O)C4)C(=O)Nc4ccc(F)c(Cl)c4)CC2C3)c1", "note": "(some centres not stated)", "values": [{"measurement": "Ki", "setting": "[7]", "result": "> 3000", "unit": "nM"}]}, {"smiles": "CC(=O)N(C)C1CCN(c2ccc(NC(=O)N3CCC(c4ccc(Cl)cc4)CC3)cc2)C1", "note": "(configuration not stated)", "values": [{"measurement": "Reduction", "setting": "Mus musculus [16]", "result": 64, "unit": "%"}]}, {"smiles": "Cc1cc(N(C)CCN(C)C)nc2ccc(NC(=O)/C=C/c3ccc(OC(F)(F)F)cc3)cc12", "values": [{"measurement": "Reduction", "setting": "Rattus norvegicus [17]", "result": ">30", "unit": "%"}]}, {"smiles": "C[C@]1(c2cccc(C#N)c2)CC[C@H](N(CCN2CC[C@@H](O)C2)C(=O)Nc2ccc(F)c(C(F)(F)F)c2)CC1", "values": [{"measurement": "Ki", "setting": "[14]", "result": 391, "unit": "nM"}, {"measurement": "Ki", "setting": "[7]", "result": "> 3000", "unit": "nM"}]}, {"smiles": "N#Cc1cccc([C@]23CC[C@@H](N(CCN4CC[C@@H](O)C4)C(=O)Nc4ccc(F)c(Cl)c4)C[C@H]2C3)c1", "values": [{"measurement": "Efficacy", "setting": "Mus musculus [2]", "result": 85, "unit": "%"}, {"measurement": "Efficacy", "setting": "Mus musculus [3]", "result": 93.6, "unit": "%"}, {"measurement": "Efficacy", "setting": "Mus musculus [4]", "result": 94.9, "unit": "%"}, {"measurement": "inhibition", "setting": "[5]", "result": 50, "unit": "%"}, {"measurement": "inhibition", "setting": "[6]", "result": 13, "unit": "%"}, {"measurement": "Ki", "setting": "[7]", "result": "> 3000", "unit": "nM"}, {"measurement": "Ki", "setting": "[8]", "result": 5.9, "unit": "nM"}]}, {"smiles": "N#Cc1ccc([C@]23CC[C@@H](N(CCN4CCCC4)C(=O)Nc4cc(Cl)cc(Cl)c4)[C@H]2C3)cc1", "values": [{"measurement": "Efficacy", "setting": "Mus musculus [2]", "result": 78.4, "unit": "%"}, {"measurement": "Efficacy", "setting": "Mus musculus [3]", "result": 86.6, "unit": "%"}, {"measurement": "Efficacy", "setting": "Mus musculus [4]", "result": 94.7, "unit": "%"}, {"measurement": "inhibition", "setting": "[5]", "result": 76, "unit": "%"}, {"measurement": "Ki", "setting": "[14]", "result": 18, "unit": "nM"}, {"measurement": "Ki", "setting": "[7]", "result": "> 3000", "unit": "nM"}]}, {"smiles": "N#Cc1cccc([C@H]2CC[C@H](N(CCN3CC[C@@H](O)C3)C(=O)Nc3ccc(F)c(C(F)(F)F)c3)CC2)c1", "values": [{"measurement": "Ki", "setting": "[14]", "result": 215, "unit": "nM"}, {"measurement": "Ki", "setting": "[7]", "result": "> 3000", "unit": "nM"}]}, {"smiles": "C[C@]1(c2cccc(C#N)c2)CC[C@@H](N(CCN2CC[C@@H](O)C2)C(=O)Nc2ccc(F)c(C(F)(F)F)c2)CC1", "values": [{"measurement": "Ki", "setting": "[14]", "result": "> 3000", "unit": "nM"}, {"measurement": "Ki", "setting": "[7]", "result": "> 3000", "unit": "nM"}]}, {"smiles": "CN(C)CC1CCc2cc(NC(=O)c3ccc(-c4ccc(F)cc4)cc3)ccc2C1", "note": "(configuration not stated)", "values": [{"measurement": "Suppression", "setting": "Rattus norvegicus [18]", "result": ">90", "unit": "%"}]}, {"smiles": "N#Cc1cccc([C@]23CC[C@@H](N(CCN4CC[C@@H](O)C4)C(=O)Nc4ccc(F)c(Cl)c4)CC2C3)c1", "note": "(some centres not stated)", "values": [{"measurement": "Ki", "setting": "[7]", "result": "> 3000", "unit": "nM"}, {"measurement": "Ki", "setting": "[8]", "result": 10.7, "unit": "nM"}]}, {"smiles": "N#Cc1cccc(C2=CCC(N(CCN3CCCC3)C(=O)Nc3ccc(F)c(Cl)c3)CC2)c1", "note": "(configuration not stated)", "values": [{"measurement": "Kb", "setting": "[10]", "result": 9, "unit": "nM"}, {"measurement": "Ki", "setting": "[14]", "result": 3, "unit": "nM"}, {"measurement": "Ki", "setting": "[7]", "result": "> 3000", "unit": "nM"}]}]}
